This note sets out measurements from ChEMBL document CHEMBL4610059, “Isolation of triterpenoid saponins from Medicago sativa L. with neuroprotective activities” (2020).

Molecules are shown by their SMILES.

What all share (format): functional
Holding throughout (settings): read-out: Activity

Test [1] deals with SH-SY5Y. The test can be described thus: Neuroprotective activity against H2O2-induced cell death in human SH-SY5Y cells assessed as cell viability at 100 uM preincubated for 1 hr followed by H2O2 addition and measured after 4 hrs by CCK8 assay (reference value: 61.14 +/- 1.05%). A general note: Formazan colour is commonly taken as a measure of viable cells.
The test system of test [2] is SH-SY5Y. The test can be described thus: Neuroprotective activity against H2O2-induced cell death in human SH-SY5Y cells assessed as cell viability at 50 uM preincubated for 1 hr followed by H2O2 addition and measured after 4 hrs by CCK8 assay (reference value: 61.14 +/- 1.05%).
For test [3], the system named is SH-SY5Y. Nature of the test: Neuroprotective activity against H2O2-induced cell death in human SH-SY5Y cells assessed as cell viability at 25 uM preincubated for 1 hr followed by H2O2 addition and measured after 4 hrs by CCK8 assay (reference value: 61.14 +/- 1.05%).

For the compound `CC1(C)CC[C@]2(C(=O)O)CC[C@]3(C)C(=CC[C@@H]4[C@@]5(C)C[C@H](O)[C@H](O)[C@@](C)(C(=O)O)[C@@H]5CC[C@]43C)[C@@H]2C1`, the viability at 100 µM in the test on SH-SY5Y [1] was 62.2%. In addition, the viability at 50 µM with SH-SY5Y [2] came out at 61.1%. Besides, in the test on SH-SY5Y [3], the viability at 25 µM turned out to be 60.1%.
The matching figures for `COC(=O)[C@H]1O[C@@H](O[C@H]2CC[C@@]3(C)[C@@H](CC[C@]4(C)[C@@H]3CC=C3[C@@H]5CC(C)(C)CC[C@]5(C(=O)O[C@@H]5O[C@H](CO)[C@@H](O)[C@H](O)[C@H]5O)CC[C@]34C)[C@]2(C)CO)[C@H](O[C@@H]2O[C@H](CO)[C@@H](O)[C@H](O)[C@H]2O[C@@H]2OC[C@H](O)[C@H](O)[C@H]2O)[C@@H](O)[C@@H]1O`: 63.1%, 62.9% and 61.9%.
The matching figures for `COC(=O)[C@H]1O[C@@H](O[C@H]2[C@@H](O)C[C@@]3(C)[C@@H](CC[C@]4(C)[C@@H]3CC=C3[C@@H]5CC(C)(C)CC[C@]5(C(=O)O[C@@H]5O[C@H](CO)[C@@H](O)[C@H](O)[C@H]5O)CC[C@]34C)[C@]2(C)CO)[C@H](O)[C@@H](O)[C@@H]1O[C@@H]1OC[C@@H](O)[C@H](O)[C@H]1O`: 73%, 64.8% and 62.1%.
On to `Cc1c(C)c2c(c(C)c1O)CCC(C)(C(=O)O)O2` (stereo not given) [TROLOX], for which the viability at 100 µM in the test on SH-SY5Y [1] was 78.2%. For the same compound, the viability at 50 µM in the test with SH-SY5Y [2] came to 75.3%. Also, in the test on SH-SY5Y [3], the viability at 25 µM was 70.2%.
Taken in the same sequence, the figures for `COC(=O)[C@H]1O[C@@H](O[C@H]2[C@@H](O)C[C@@]3(C)[C@@H](CC[C@]4(C)[C@@H]3CC=C3[C@@H]5CC(C)(C)CC[C@]5(C(=O)O[C@@H]5O[C@H](CO)[C@@H](O)[C@H](O)[C@H]5O)CC[C@]34C)[C@]2(C)CO)[C@H](O[C@@H]2O[C@H](CO)[C@H](O)[C@H](O)[C@H]2O)[C@@H](O)[C@@H]1O` were 67.1%, 61.2% and 60.7%.
